This is an account of results in patent US20240383901A1, “SUBSTITUTED PYRROLO[2,3-D]PYRIMIDINES, THEIR PREPARATION AND THEIR THERAPEUTIC APPLICATION” (SANOFI, priority 2021, published 2024).

Assay [1] has as its target T1, full-length LRRK2 G2019S (Homo sapiens, UniProt Q5S007, G2019S).
T1 construct: DYKDDDDK (FLAG)
The assay can be described thus: LRRK2-G2019S kinase activity assay (Lanthascreen TR-FRET). The conditions noted are these: 1.1 mM ATP. Format: biochemical. (TR-FRET usually uses a lanthanide donor and a delayed reading to cut background.)

In assay [2] the target is T2, full-length LRRK2 wild type (Homo sapiens, UniProt Q5S007).
T2 construct: DYDDDDK tagged full-length LRRK2 wild type is used
The assay can be described thus: LRRK2 WT assay (Assay A, Lanthascreen TR-FRET, 500 uM ATP). Format: biochemical. The conditions noted are these: Assay A (values without *).

A word on the IC50: it is the point on the concentration scale where inhibition reaches its midpoint. High values mean a need for much substance, low ones inhibition by little substance.

T2 sequence (Q5S007 whole entry): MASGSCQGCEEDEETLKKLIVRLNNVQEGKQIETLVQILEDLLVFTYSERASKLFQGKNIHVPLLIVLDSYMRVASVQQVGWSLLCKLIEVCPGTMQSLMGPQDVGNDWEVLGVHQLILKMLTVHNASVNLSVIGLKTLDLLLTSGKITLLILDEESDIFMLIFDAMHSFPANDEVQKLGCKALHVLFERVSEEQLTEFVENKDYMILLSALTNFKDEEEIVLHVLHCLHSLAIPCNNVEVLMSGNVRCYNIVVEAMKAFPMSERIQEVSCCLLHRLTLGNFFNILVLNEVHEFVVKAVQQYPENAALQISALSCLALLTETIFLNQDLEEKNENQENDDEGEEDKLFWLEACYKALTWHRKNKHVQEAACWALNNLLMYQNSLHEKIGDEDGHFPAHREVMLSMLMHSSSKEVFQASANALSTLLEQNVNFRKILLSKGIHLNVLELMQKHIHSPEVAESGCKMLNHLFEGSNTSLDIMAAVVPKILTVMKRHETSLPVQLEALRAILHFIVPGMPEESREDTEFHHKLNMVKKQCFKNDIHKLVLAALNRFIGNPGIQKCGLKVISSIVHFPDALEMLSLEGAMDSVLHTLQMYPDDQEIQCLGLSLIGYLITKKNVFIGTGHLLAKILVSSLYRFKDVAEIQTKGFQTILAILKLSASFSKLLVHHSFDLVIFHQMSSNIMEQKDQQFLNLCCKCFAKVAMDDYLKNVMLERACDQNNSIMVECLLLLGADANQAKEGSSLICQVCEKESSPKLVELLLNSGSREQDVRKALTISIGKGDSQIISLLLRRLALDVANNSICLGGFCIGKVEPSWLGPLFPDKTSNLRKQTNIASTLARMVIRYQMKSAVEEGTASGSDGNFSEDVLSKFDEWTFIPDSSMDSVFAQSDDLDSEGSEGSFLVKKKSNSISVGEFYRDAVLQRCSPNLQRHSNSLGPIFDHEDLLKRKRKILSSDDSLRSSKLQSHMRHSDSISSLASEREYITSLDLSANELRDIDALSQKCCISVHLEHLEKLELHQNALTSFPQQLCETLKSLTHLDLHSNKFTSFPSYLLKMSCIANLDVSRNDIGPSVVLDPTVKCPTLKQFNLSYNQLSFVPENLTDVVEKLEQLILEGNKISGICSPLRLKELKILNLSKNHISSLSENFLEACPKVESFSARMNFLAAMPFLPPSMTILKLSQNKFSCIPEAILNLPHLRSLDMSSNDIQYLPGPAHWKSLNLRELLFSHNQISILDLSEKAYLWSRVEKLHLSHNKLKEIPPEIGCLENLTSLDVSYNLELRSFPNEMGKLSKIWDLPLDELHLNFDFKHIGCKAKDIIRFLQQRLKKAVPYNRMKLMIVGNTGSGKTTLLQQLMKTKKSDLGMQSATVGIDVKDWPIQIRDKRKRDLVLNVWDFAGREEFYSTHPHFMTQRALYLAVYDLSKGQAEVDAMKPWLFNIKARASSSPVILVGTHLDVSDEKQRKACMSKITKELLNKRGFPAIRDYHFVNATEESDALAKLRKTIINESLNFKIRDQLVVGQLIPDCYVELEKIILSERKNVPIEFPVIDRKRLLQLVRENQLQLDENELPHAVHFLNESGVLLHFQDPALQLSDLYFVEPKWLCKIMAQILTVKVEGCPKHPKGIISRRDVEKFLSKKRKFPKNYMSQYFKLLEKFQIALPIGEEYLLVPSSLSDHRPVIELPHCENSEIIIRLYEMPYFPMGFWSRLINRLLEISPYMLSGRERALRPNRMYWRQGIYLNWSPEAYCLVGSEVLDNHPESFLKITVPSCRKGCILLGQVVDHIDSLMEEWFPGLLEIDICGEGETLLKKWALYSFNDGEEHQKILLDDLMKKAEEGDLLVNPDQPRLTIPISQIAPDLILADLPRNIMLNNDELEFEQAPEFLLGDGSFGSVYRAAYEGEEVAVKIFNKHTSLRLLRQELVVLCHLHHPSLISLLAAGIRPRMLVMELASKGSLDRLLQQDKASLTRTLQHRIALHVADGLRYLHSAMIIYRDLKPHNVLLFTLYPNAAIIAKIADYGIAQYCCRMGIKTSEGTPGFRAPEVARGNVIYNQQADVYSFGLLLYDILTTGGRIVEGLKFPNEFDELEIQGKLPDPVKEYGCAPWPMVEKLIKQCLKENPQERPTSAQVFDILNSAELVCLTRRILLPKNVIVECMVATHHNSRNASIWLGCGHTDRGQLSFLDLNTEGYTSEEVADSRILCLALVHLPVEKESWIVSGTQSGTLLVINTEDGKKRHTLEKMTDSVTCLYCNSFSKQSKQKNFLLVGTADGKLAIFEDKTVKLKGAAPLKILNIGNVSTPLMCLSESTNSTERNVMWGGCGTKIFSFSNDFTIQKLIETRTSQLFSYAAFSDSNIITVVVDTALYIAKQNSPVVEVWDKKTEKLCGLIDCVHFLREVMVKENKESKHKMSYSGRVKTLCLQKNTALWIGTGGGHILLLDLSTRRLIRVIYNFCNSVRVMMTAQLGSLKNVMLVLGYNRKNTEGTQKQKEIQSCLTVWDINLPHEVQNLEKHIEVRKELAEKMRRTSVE
T1 sequence (Q5S007 whole entry G2019S): as the sequence (Q5S007 whole entry) above, with G2019S counted along it

As to `C[C@H]1COC[C@@H]1n1c(C#N)cc2cnc(Nc3cn(CS(C)(=O)=O)nc3OC3CC3)nc21` [Example 36, 2-((3-Cyclopropoxy-1-((methylsulfonyl)methyl)-1H-pyrazol-4-yl)amino)-7-((3R,4R)-4-methyltetrahydrofuran-3-yl)-7H-pyrrolo[2,3-d]pyrimidine-6-carbonitrile], the IC50 in assay [1] and in assay [2] was 1 nM in each case.
As to `C[C@H]1COC[C@@H]1n1c(C#N)cc2cnc(Nc3cn(C4CC4)nc3OC3COC3)nc21` [Example 37, 2-((1-Cyclopropyl-3-(oxetan-3-yloxy)-1H-pyrazol-4-yl)amino)-7-((3R,4R)-4-methyltetrahydrofuran-3-yl)-7H-pyrrolo[2,3-d]pyrimidine-6-carbonitrile], the results for the IC50 in assay [1] and in assay [2] were 6 nM and 8 nM, respectively.
In the same order, the values of `CCn1cc(Nc2ncc3cc(C#N)n([C@H]4COC[C@@H]4C)c3n2)c(OC2COC2)n1` [Example 38, 2-((1-Ethyl-3-(oxetan-3-yloxy)-1H-pyrazol-4-yl)amino)-7-((3R,4R)-4-methyltetrahydrofuran-3-yl)-7H-pyrrolo[2,3-d]pyrimidine-6-carbonitrile] are 5 nM and 6 nM.
For `C[C@H]1COC[C@@H]1n1c(C#N)cc2cnc(Nc3cn(C)nc3OC3CCC34COC4)nc21` (stereo partly drawn) [Example 40, 2-[[1-methyl-3-[(2-oxaspiro[3.3]heptan-7-yl)oxy]pyrazol-4-yl]amino]-7-[(3R,4R)-4-methyltetrahydrofuran-3-yl]pyrrolo[2,3-d]pyrimidine-6-carbonitrile], the IC50 in assay [1] and in assay [2] was 1 nM each time.
In the case of `C[C@H]1COC[C@@H]1n1c(C#N)cc2cnc(Nc3ccc(CN(C)C)cc3OC3CC3)nc21` [Example 41, 2-((2-Cyclopropoxy-4-((dimethylamino)methyl)phenyl)amino)-7-((3R,4R)-4-methyltetrahydrofuran-3-yl)-7H-pyrrolo[2,3-d]pyrimidine-6-carbonitrile], the IC50 amounted to 3 nM in assay [1] and 4 nM in assay [2].
As to `[2H]C([2H])([2H])n1cc(Nc2ncc3cc(C#N)n([C@H]4COC[C@@H]4C)c3n2)c(OC(C)C)n1` [Example 42, 2-((3-Isopropoxy-1-(methyl-d3)-1H-pyrazol-4-yl)amino)-7-((3R,4R)-4-methyltetrahydrofuran-3-yl)-7H-pyrrolo[2,3-d]pyrimidine-6-carbonitrile], the values for the IC50 in assay [1] and in assay [2] were 2 nM and 1 nM, respectively.
Regarding `C[C@@H]1COC[C@H]1n1c(C#N)cc2cnc(Nc3cn(C)nc3OC3COC3)nc21` [Example 44, 2-((1-Methyl-3-(oxetan-3-yloxy)-1 H-pyrazol-4-yl)amino)-7-((3S,4S)-4-methyltetrahydrofuran-3-yl)-7H-pyrrolo[2,3-d]pyrimidine-6-carbonitrile], the IC50 in assay [1] came out at 191 nM; in assay [2], 196 nM.
As to `CO[C@H]1COC[C@H]1n1c(C#N)cc2cnc(Nc3ccc(C(C)(C)O)cc3OC3COC3)nc21` [Example 55, 2-((4-(2-Hydroxypropan-2-yl)-2-(oxetan-3-yloxy)phenyl)amino)-7-((3R,4R)-4-methoxytetrahydrofuran-3-yl)-7H-pyrrolo[2,3-d]pyrimidine-6-carbonitrile], the IC50 in assay [1] is 18 nM; in assay [2], 41 nM.
On the same counts, the results for `CC(C)Oc1nn(C(C)(C)C#N)cc1Nc1ncc2cc(C#N)n(C3COC3)c2n1` [Example 74, 2-((1-(2-Cyanopropan-2-yl)-3-isopropoxy-1H-pyrazol-4-yl)amino)-7-(oxetan-3-yl)-7H-pyrrolo[2,3-d]pyrimidine-6-carbonitrile] are 14 nM and 20 nM.
Turning to `[2H]C([2H])([2H])n1cc(Nc2ncc3cc(C#N)n([C@@H](C)COC)c3n2)c(OC2COC2)n1` [Example 91, 7-[(2S)-1-Methoxypropan-2-yl]-2-[[3-(oxetan-3-yloxy)-1-(methyl-d3)pyrazol-4-yl]amino]pyrrolo[2,3-d]pyrimidine-6-carbonitrile], the IC50 in assay [1] was 7 nM; in assay [2], 13 nM.
For the compound `COC[C@H](C)n1c(C#N)cc2cnc(Nc3cn(COC)nc3OC3CC3)nc21` [Example 92, 2-[[3-(Cyclopropoxy)-1-(methoxymethyl)pyrazol-4-yl]amino]-7-[(1S)-2-methoxy-1-methyl-ethyl]pyrrolo[2,3-d]pyrimidine-6-carbonitrile], the IC50 in assay [1] was 4 nM; in assay [2], 6 nM.
With `COC[C@H](C)n1c(C#N)cc2cnc(Nc3cn(CS(C)(=O)=O)nc3OC3COC3)nc21` [Example 93, 7-[(1S)-2-Methoxy-1-methyl-ethyl]-2-[[1-(methylsulfonylmethyl)-3-(oxetan-3-yloxy)pyrazol-4-yl]amino]pyrrolo[2,3-d]pyrimidine-6-carbonitrile], the half-maximal inhibitory concentration (IC50) in assay [1] is 4 nM; in assay [2], 8 nM.
On to `COCCn1cc(Nc2ncc3cc(C#N)n([C@@H](C)COC)c3n2)c(OC2CC2)n1` [Example 103, (S)-2-((3-cyclopropoxy-1-(2-methoxyethyl)-1H-pyrazol-4-yl)amino)-7-(1-methoxypropan-2-yl)-7H-pyrrolo[2,3-d]pyrimidine-6-carbonitrile], for which the IC50 was determined as 31 nM in assay [1] and 35 nM in assay [2].
`COCC(C)n1c(C#N)cc2cnc(Nc3cn(C4CCC(C)(O)CC4)nc3OC(C)C)nc21` [Example 104, cis-2-((1-(4-hydroxy-4-methylcyclohexyl)-3-isopropoxy-1H-pyrazol-4-yl)amino)-7-((S)-1-methoxypropan-2-yl)-7H-pyrrolo[2,3-d]pyrimidine-6-carbonitrile]: the IC50 was 42 nM in assay [1] and 44 nM in assay [2].
For the compound `COCC(C)n1c(C#N)cc2cnc(Nc3cn(C4CCC(C)(O)CC4)nc3OC(C)C)nc21` [Example 105, trans-2-((1-(4-hydroxy-4-methylcyclohexyl)-3-isopropoxy-1H-pyrazol-4-yl)amino)-7-((S)-1-methoxypropan-2-yl)-7H-pyrrolo[2,3-d]pyrimidine-6-carbonitrile], the IC50 was 57 nM in assay [1] and 62 nM in assay [2].
On the same counts, the results for `COCC(C)n1c(C#N)cc2cnc(Nc3cn(C4CCC(C)(O)CC4)nc3OC3CC3)nc21` [Example 106, cis-2-((3-cyclopropoxy-1-(4-hydroxy-4-methylcyclohexyl)-1H-pyrazol-4-yl)amino)-7-((S)-1-methoxypropan-2-yl)-7H-pyrrolo[2,3-d]pyrimidine-6-carbonitrile] are 55 nM and 70 nM.
Regarding `COCC(C)n1c(C#N)cc2cnc(Nc3cn(C4CCC(C)(O)CC4)nc3OC3CC3)nc21` [Example 107, trans-2-((3-cyclopropoxy-1-(4-hydroxy-4-methylcyclohexyl)-1H-pyrazol-4-yl)amino)-7-((S)-1-methoxypropan-2-yl)-7H-pyrrolo[2,3-d]pyrimidine-6-carbonitrile], the results for the IC50 in assay [1] and in assay [2] were 81 nM and 90 nM, respectively.
Consider `[2H]C([2H])([2H])n1cc(Nc2ncc3cc(C#N)n([C@@H](C)COC)c3n2)c(OC2CC(O)C2(C)C)n1` (stereo partly drawn) [Example 108, 2-((3-(3-hydroxy-2,2-dimethylcyclobutoxy)-1-(methyl-d3)-1H-pyrazol-4-yl)amino)-7-((S)-1-methoxypropan-2-yl)-7H-pyrrolo[2,3-d]pyrimidine-6-carbonitrile], for which the IC50 in assay [1] and in assay [2] was 10 nM each time.
